Measured values as given in paper PMC11242993, “Evaluation of the Therapeutic Potential of Sulfonyl Urea Derivatives as Soluble Epoxide Hydrolase (sEH) Inhibitors” (Molecules, 2024).

Legend:
mouse recombinant sEH = biological target: T1, mouse recombinant sEH (Mus musculus, UniProt P34914); assay: Fluorescence-based sEH activity assay (PHOME substrate), mouse enzyme; format: biochemical; conditions: dose-dependent assay; read-out: Mouse sEH Inhibition IC50
T1 sequence (P34914 1-554): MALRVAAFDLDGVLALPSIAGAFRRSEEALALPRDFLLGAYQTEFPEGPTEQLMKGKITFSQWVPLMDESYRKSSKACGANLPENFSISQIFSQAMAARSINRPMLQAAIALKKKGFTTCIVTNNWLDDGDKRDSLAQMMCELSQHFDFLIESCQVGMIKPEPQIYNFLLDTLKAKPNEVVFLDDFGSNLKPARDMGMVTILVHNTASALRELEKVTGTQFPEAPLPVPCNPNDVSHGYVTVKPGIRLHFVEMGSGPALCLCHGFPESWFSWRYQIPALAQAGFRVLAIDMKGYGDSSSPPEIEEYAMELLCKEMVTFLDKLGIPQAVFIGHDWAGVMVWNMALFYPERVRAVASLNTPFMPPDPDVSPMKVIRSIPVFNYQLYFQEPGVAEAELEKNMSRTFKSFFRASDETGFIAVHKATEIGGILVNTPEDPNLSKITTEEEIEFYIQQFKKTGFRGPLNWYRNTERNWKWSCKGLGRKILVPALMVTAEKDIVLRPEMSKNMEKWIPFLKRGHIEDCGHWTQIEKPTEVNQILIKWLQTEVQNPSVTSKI
Protocol: (§1) A fluorescence-based sEH activity assay provided a convenient method for screening human epoxide hydrolase inhibitors. The assay utilized (3-Phenyl-oxiranyl)-acetic acid cyano-(6-methoxy-naphthalen-2-yl)-methyl ester (PHOME) as a substrate. […] The inhibitory function of the compounds on sEH activity was tested as detailed in the product manual from Cayman Chemical. Briefly, 3 mL sEH assay buffer (10×) was diluted with 27 mL HPLC-grade water. This final assay buffer, 25 mM bis-tris (pH 7.0), was used in the assay and for the dilution of the soluble epoxide hydrolase (sEH) enzyme. Amounts of 12 μL each of human and mouse recombinant sEH were thawed on ice. Prior to assaying, 588 μL cold assay buffer was added directly to the enzyme vial. An amount of 190 μL assay buffer and 5 μL solvent (40% DMSO in assay buffer) were added to the background wells. In the 100% initial activity wells, 185 μL assay buffer, 5 μL sEH, and 5 μL solvent were added. In inhibitor wells, 185 μL assay buffer, 5 μL solution of the synthesized compounds, and 5 μL of recombinant enzyme solution were added. To start the reaction, 5 μL of PHOME was added to each well at a final concentration of 0.25 mM. The microwell plate was shaken carefully for 10 s and covered with a plate cover.
(§2) Average fluorescence (AF) of the background wells and 100% initial activity in the wells and of each of the inhibitors were determined. The background AF was subtracted from the 100% initial activity and inhibitor AFs. The % sEH activity is calculated as (inhbitited AF/% 100 initial activity) × 100.
(§3) Multiple concentrations of the inhibitors were tested followed by plotting of the percent activity as a function of inhibitor concentration to determine the IC50 values.

[1] = In vivo pharmacokinetic experiment; set-up: species or system C57BL/6J mice; conditions: mice, 10 mg/kg; for Cmax (in words): oral
Protocol: Twenty 8–9-week-old male C57BL/6J mice were taken for the in vivo pharmacokinetic experiment. They were divided into four groups, each containing five mice. Each group was used for either oral or intraperitoneal administration of compound 4f or 15a. Both the compounds were reconstituted in 5% DMSO, 5% TWEEN 80 in saline water (pH = 7.4). The mice were orally and intraperitoneally administered compounds at 10 mg/kg dose. Blood samples were collected at 0, 0.5, 1, 2, 4, 6, and 24 h after administration of the compound, and serum was isolated with the compound. For the pharmacokinetic study, 10 μL of serum samples from mice were extracted with a 2:1 mixture of LC/MS-grade chloroform and methanol, followed by intermittent vortexing, and then centrifuged at 4000 rpm for 10 min at 4 °C. Thereafter, the supernatant was collected and analyzed by LC−MS/MS to measure the concentrations of compounds 4f and 15a in the serum.

human recombinant sEH = biological target: T2, human recombinant sEH (Homo sapiens, UniProt P34913); assay: Fluorescence-based sEH activity assay (PHOME substrate), human enzyme; format: biochemical; conditions: for IC50: dose-dependent assay, read-out: Human sEH Inhibition IC50
T2 construct: purchased Cayman Chemical 10011671
T2 sequence (P34913 1-555): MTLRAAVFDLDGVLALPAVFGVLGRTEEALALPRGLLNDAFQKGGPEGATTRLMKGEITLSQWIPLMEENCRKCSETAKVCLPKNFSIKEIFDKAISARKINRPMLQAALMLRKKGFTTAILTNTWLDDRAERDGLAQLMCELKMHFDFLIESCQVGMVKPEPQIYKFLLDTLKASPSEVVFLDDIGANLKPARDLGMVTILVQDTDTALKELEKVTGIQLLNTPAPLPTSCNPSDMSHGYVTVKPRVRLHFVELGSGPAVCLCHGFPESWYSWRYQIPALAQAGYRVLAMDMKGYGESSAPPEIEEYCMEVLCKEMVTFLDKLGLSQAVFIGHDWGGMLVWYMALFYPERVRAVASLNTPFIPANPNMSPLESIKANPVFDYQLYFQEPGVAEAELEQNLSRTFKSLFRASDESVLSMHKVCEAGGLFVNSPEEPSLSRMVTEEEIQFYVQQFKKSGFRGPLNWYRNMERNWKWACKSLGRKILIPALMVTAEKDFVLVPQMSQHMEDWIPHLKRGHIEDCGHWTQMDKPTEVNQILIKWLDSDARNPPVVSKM
Protocol: as §1, with “added.” for “added. To start the reaction, 5 μL of PHOME was added to each well at a final concentration of 0.25 mM. The microwell plate was shaken carefully for 10 s and covered with a plate cover.”
as §2, §3

O=C(NC12CC3CC(CC(C3)C1)C2)NS(=O)(=O)c1ccc(OC(F)(F)F)cc1 [Compound 4f]
IC50 (mouse recombinant sEH): 290 nM
half-life ([1]; male, C57BL/6J, mouse, serum, other: oral and intraperitoneal, oral and intraperitoneal administration, read-out: plasma half-life): < 2 h
Cmax (in words) [1]: better than that of 15a
Human sEH % Inhibition (human recombinant sEH): 96.05%
IC50 (human recombinant sEH): 1.69 nM

O=C(NC12CC3CC(CC(C3)C1)C2)NS(=O)(=O)c1ccc2ccccc2c1 [Compound 4l]
IC50 (mouse recombinant sEH): 190 nM
Cmax (in words) [1]: promising Cmax value
Human sEH % Inhibition (human recombinant sEH): 96.79%
IC50 (human recombinant sEH): 1.21 nM
